Experimental data from paper PMC9663578, “A fluorogenic probe for predicting treatment response in non-small cell lung cancer with EGFR-activating mutations” (Nature Communications, 2022).
Where “and” joins values, the source holds several entries; their conditions need not be identical. Identical values can stand only once.

Assays:
EGFR = target: T1, EGFR (Homo sapiens, UniProt P00533); experiment: Fluorescence spectra of HX103 with EGFR, alone or with competing inhibitors (Fig. 2a); type: binding
T1 construct: Recombinant human EGFR (amino acids 668–1210, #PR7295B); purchased Thermo Fisher PR7295B

MTT cytotoxicity assay = type: cell-based; conditions: human, HeLa cells, EGFR wild-type, n=3
HCC827 = experiment: Western blot of EGFR activation and downstream AKT and ERK1/2 phosphorylation; type: cell-based, human
Method: (§1) Western blotting analysis was performed to investigate the expression of EGFR and downstream signaling pathway in various cancer cells. Cells were added at a density of 5 × 10^5 per well in six-well plates and serum-starved in DMEM without FBS. […] After a PBS washing step, the cells were harvested and lysed in RIPA lysis buffer (Thermo Scientific, #89900) on ice for 20 min. After sonication, cell lysates were centrifuged at 12,000×g at 4 °C for 20 min. The supernatant was collected and protein concentration was determined by a BCA protein quantitation kit (Vazyme) and normalized to 2 mg/mL. Subsequently, 20 µL of protein sample was loaded to each lane and resolved on a 10% SDS-PAGE gel. After that, proteins on the gel were transferred onto polyvinylidene difluoride (PVDF) membranes (0.45 µm, Amersham Bioscience). PVDF membranes were blocked with 5% BSA blocking solution for 2 h at room temperature, followed by incubation with different primary antibodies (4 °C, overnight), including EGFR (#4267, 1:1000), phospho-EGFR (#3777, 1:1000), Akt (#4685, 1:1000), phospho-Akt (#4060, 1:1000), ERK1/2 (#4695, 1:1000), phospho-ERK1/2 (#4370, 1:2000) and GAPDH (#5174, 1:2000). Next, the membranes were washed by TBST buffer (Tris buffer with 0.1% Tween-20) for three times, followed by incubation with anti-rabbit IgG (HRP-linked antibody, #7074, 1:5000) for 1 h at room temperature. Finally, the blots were washed in PBST and immunoreactive proteins were detected using a luminal solution with ECL enhancer and H2O2 by ChemiDoc MP (BioRad) with Image Lab 6.0 software. The band density of each band was quantified and normalized to that of the corresponding GAPDH band to correct the possible differences in the content of protein loading. Each experiment was repeated 3 times for statistical analysis, and uncropped blots are in Source Data.

Hela = experiment: as above; type: cell-based, human; conditions: HX103 0 to 10 µM, EGF 25 ng/mL
Method: as §1

H1975 = experiment: as above; type: cell-based, human; conditions: for p-kinase / kinase pAKT/AKT / p-kinase / kinase pEGFR/EGFR / p-kinase / kinase pERK/ERK: Fig. 2h H1975, DMSO = 1, n=1-3
Method: as §1

A549 = experiment: as above; type: cell-based, human; conditions: for p-kinase / kinase pAKT/AKT / p-kinase / kinase pEGFR/EGFR / p-kinase / kinase pERK/ERK: Fig. 2j A549, DMSO = 1, n=1-3
Method: as §1

A431 = experiment: as above; type: cell-based, human
Method: as §1

EGFR 19del = target: T2, EGFR 19del (Homo sapiens, UniProt P00533, DEL746-750); experiment: Fluorescence turn-on response / titration of HX103 with recombinant EGFR;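 as to Fluorescence intensity at 570 nm: 100% is HX103 fluorescence with wild-type EGFR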;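 as to Fluorescence response of HX103 to EGFR 19del: ratio I over I0 of probe intensity with versus without protein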; type: binding; conditions: for Fluorescence intensity, DEL19: Fig. 2c; for Fluorescence response of HX103 to EGFR 19del: Supplementary Fig. 2f
T2 construct: purchased Thermo Fisher PV6179
Method: (d) Fluorescence spectra change of HX103 (5 µ M) with increasing concentration of EGFR L858R
(e) Fluorescence spectra change of HX103 (5 µ M ) with
increasing concentration of EGFR 19del (0 to 6 µM) in PBS buffer. (f) Titration curve of HX103
(5 µM) with increasing concentration of EGFRs (0 to 6 µM). The apparent binding affinity (Kd)
The fluorescence titration curve was fitted on one -
site specific binding model. I and I0 represent the intensities of HX103 at 570 nm in the presence
and absence of protein. Data represent average val ues ± SD, n = 3 independent experiments per
dissolved in dimethyl sulfoxide (DMSO) to obtain stock solutions (10 mM). The prepared stock
solution was diluted in sodium phosphate buffer (PBS, 1 M, pH=7.4) to obtain the desired final
concentration solution, containing 0.1% (v/v) DMSO as a cosolvent.
and emission fluorescence spectra of the solution before/after addition o f different concentration
Data analysis：The obtained fluorescence intensity at 570 nm (Excitation wavelength was 440
nm) in each sample was normalized by using the fluorescence intensity of HX103 in the presence
of EGFR. Specifically, the fluorescence intensity of HX103 in the presence of EGFR wild-type
was set at 100% to normalized that of the remaining samples.

H1975 cells = experiment: MTT cytotoxicity assay; type: cell-based; conditions: Homo sapiens, NCI-H1975; EGFR L858R/T790M, 48 h, n=3
BSA = BSA (Bos taurus, UniProt P02769); experiment: Fluorescence spectra of HX103 with BSA (Fig. 2c); type: binding
[1] = concentration 0.3 (unit not given)
[2] = concentration 1 (unit not given)
[3] = concentration 3 (unit not given)
[4] = concentration 10 (unit not given)
[5] = Fig. 2i A431, concentration 0.3 (unit not given), DMSO = 1, n=1-3
[6] = Fig. 2i A431, concentration 1 (unit not given), DMSO = 1, n=1-3
[7] = Fig. 2i A431, concentration 3 (unit not given), DMSO = 1, n=1-3
[8] = Fig. 2i A431, concentration 10 (unit not given), DMSO = 1, n=1-3

BSA, sequence (P02769 25-607): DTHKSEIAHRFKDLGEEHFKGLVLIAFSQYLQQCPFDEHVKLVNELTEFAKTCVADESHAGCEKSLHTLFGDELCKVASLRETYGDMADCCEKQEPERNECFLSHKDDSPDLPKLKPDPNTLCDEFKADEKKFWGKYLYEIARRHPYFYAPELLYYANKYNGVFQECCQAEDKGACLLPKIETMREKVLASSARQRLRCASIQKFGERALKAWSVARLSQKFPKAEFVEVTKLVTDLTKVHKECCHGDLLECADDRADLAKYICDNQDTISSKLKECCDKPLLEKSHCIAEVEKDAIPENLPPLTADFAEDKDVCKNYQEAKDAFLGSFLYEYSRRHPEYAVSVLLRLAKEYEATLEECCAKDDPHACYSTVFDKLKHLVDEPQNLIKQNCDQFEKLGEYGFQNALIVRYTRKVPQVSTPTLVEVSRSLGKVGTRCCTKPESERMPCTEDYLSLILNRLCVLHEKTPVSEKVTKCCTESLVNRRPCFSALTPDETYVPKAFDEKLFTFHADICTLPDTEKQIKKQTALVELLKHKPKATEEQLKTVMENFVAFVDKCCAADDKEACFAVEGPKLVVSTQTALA

COc1cc2c(Nc3ccc(F)c(Cl)c3)ncnc2cc1OCCCNc1ccc(S(=O)(=O)N(C)C)c2nonc12 [HX103]
Fluorescence intensity, HX103+EGFR (EGFR; wavelength 666 nm): 3266.47 | Fluorescence intensity, HX103+EGFR (EGFR; wavelength 669 nm): 3104.58 | Fluorescence intensity, HX103+EGFR (EGFR; wavelength 671 nm): 2932.33 | Fluorescence intensity, HX103+EGFR (EGFR; wavelength 673 nm): 2750.71 | Fluorescence intensity, HX103+EGFR (EGFR; wavelength 676 nm): 2569.21 | Fluorescence intensity, HX103+EGFR (EGFR; wavelength 678 nm): 2397.75 | Fluorescence intensity, HX103+EGFR (EGFR; wavelength 681 nm): 2246.21 | Fluorescence intensity, HX103+EGFR (EGFR; wavelength 683 nm): 2119.91 | Fluorescence intensity, HX103+EGFR (EGFR; wavelength 686 nm): 2016.43 | Fluorescence intensity, HX103+EGFR (EGFR; wavelength 688 nm): 1932.61 | Fluorescence intensity, HX103+EGFR (EGFR; wavelength 690 nm): 1865.3 | Fluorescence intensity, HX103+EGFR (EGFR; wavelength 693 nm): 1811.29 | Fluorescence intensity, HX103+EGFR (EGFR; wavelength 695 nm): 1767.27 | Fluorescence intensity, HX103+EGFR (EGFR; wavelength 698 nm): 1729.9 | Fluorescence intensity, HX103+EGFR (EGFR; wavelength 700 nm): 1695.87 | IC50 at 48 h (MTT cytotoxicity assay): > 100 µM | p-kinase / kinase pAKT/AKT (HCC827; Fig. 2g HCC827, concentration 0.3 (unit not given), DMSO = 1, n=1-3): 0.4984 and 0.298 and 0.4432 | p-kinase / kinase pAKT/AKT (HCC827; Fig. 2g HCC827, concentration 1 (unit not given), DMSO = 1, n=1-3): 0.1684 and 0.1251 and 0.1468 | p-kinase / kinase pERK/ERK (HCC827; Fig. 2g HCC827, concentration 10 (unit not given), DMSO = 1, n=1-3): 0.1947 and 0.3677 and 0.3512 | effect on phosphorylation of EGFR and downstream proteins (HCC827; HX103 0 to 10 µM, EGF 25 ng/mL): inhibited the phosphorylation of EGFR and the downstream proteins | effect on wild-type EGFR phosphorylation (Hela): significantly inhibited | p-kinase / kinase pAKT/AKT (H1975; [1]): 0.698 and 0.724 and 0.636 | p-kinase / kinase pEGFR/EGFR (H1975; [1]): 0.558 and 0.543 and 0.573 | p-kinase / kinase pERK/ERK (H1975; [1]): 1.210 and 0.879 and 1.031 | p-kinase / kinase pAKT/AKT (H1975; [2]): 0.488 and 0.317 | p-kinase / kinase pEGFR/EGFR (H1975; [2]): 0.199 and 0.313 and 0.331 | p-kinase / kinase pERK/ERK (H1975; [2]): 0.535 and 0.443 and 0.459 | p-kinase / kinase pAKT/AKT (H1975; [3]): 0.579 and 0.573 and 0.560 | p-kinase / kinase pERK/ERK (H1975; [3]): 0.840 and 0.618 and 0.696 | p-kinase / kinase pAKT/AKT (H1975; [4]): 0.468 and 0.342 and 0.500 | p-kinase / kinase pEGFR/EGFR (H1975; [4]): 0.219 and 0.161 and 0.276 | p-kinase / kinase pERK/ERK (H1975; [4]): 0.660 and 0.681 and 0.939 | effect on phosphorylation of EGFR and downstream proteins (H1975; HX103 0 to 10 µM, EGF 25 ng/mL): a certain resistance | p-kinase / kinase pAKT/AKT (A549; [1]): 0.202 and 0.332 and 0.222 | p-kinase / kinase pEGFR/EGFR (A549; [1]): 0.116 and 0.065 and 0.105 | p-kinase / kinase pERK/ERK (A549; [1]): 0.558 and 0.86 and 0.689 | p-kinase / kinase pAKT/AKT (A549; [2]): 0.118 and 0.103 and 0.095 | p-kinase / kinase pERK/ERK (A549; [2]): 0.486 and 0.455 and 0.485 | p-kinase / kinase pEGFR/EGFR (A549; [3]): 0.07 and 0.045 and 0.073 | p-kinase / kinase pERK/ERK (A549; [3]): 0.34 and 0.535 and 0.512 | p-kinase / kinase pAKT/AKT (A549; [4]): 0.014 and 0.013 and 0.015 | p-kinase / kinase pERK/ERK (A549; [4]): 0.39 and 0.424 and 0.512 | effect on wild-type EGFR phosphorylation (A549; HX103 0 to 10 µM, EGF 25 ng/mL): significantly inhibited | p-kinase / kinase pAKT/AKT (A431; [5]): 0.604 and 0.491 and 0.502 | p-kinase / kinase pERK/ERK (A431; [5]): 0.593 and 0.802 and 0.793 | p-kinase / kinase pAKT/AKT (A431; [6]): 0.33 and 0.312 and 0.321 | p-kinase / kinase pERK/ERK (A431; [6]): 0.301 and 0.442 and 0.417 | p-kinase / kinase pAKT/AKT (A431; [7]): 0.264 and 0.189 and 0.222 | p-kinase / kinase pERK/ERK (A431; [7]): 0.169 and 0.13 and 0.175 | p-kinase / kinase pAKT/AKT (A431; [8]): 0.241 and 0.197 and 0.219 | p-kinase / kinase pEGFR/EGFR (A431; [8]): 0.067 and 0.066 and 0.064 | effect on wild-type EGFR phosphorylation (A431; HX103 0 to 10 µM, EGF 25 ng/mL): significantly inhibited | Fluorescence intensity, DEL19 (EGFR 19del; wavelength 666 nm): 6329.64 | Fluorescence intensity, DEL19 (EGFR 19del; wavelength 669 nm): 5943.64 | Fluorescence intensity, DEL19 (EGFR 19del; wavelength 671 nm): 5458.74 | Fluorescence intensity, DEL19 (EGFR 19del; wavelength 673 nm): 4903.02 | Fluorescence intensity, DEL19 (EGFR 19del; wavelength 676 nm): 4330.47 | Fluorescence intensity, DEL19 (EGFR 19del; wavelength 678 nm): 3796.5 | Fluorescence intensity, DEL19 (EGFR 19del; wavelength 681 nm): 3356.07 | Fluorescence intensity, DEL19 (EGFR 19del; wavelength 683 nm): 3030.49 | Fluorescence intensity, DEL19 (EGFR 19del; wavelength 686 nm): 2784.09 | Fluorescence intensity, DEL19 (EGFR 19del; wavelength 688 nm): 2575.72 | Fluorescence intensity, DEL19 (EGFR 19del; wavelength 690 nm): 2364.25 | Fluorescence intensity, DEL19 (EGFR 19del; wavelength 693 nm): 2121.24 | Fluorescence intensity, DEL19 (EGFR 19del; wavelength 695 nm): 1850.71 | Fluorescence intensity, DEL19 (EGFR 19del; wavelength 698 nm): 1561.85 | Fluorescence intensity, DEL19 (EGFR 19del; wavelength 700 nm): 1263.82 | Fluorescence intensity at 570 nm (EGFR 19del; Fig. 2d, HX103 with EGFR 19del, n=1-3): 101.138 and 103.905 and 84.1794 | fluorescence turn-on response (EGFR 19del; HX103 5 µM in PBS buffer (0.1% DMSO), 570 nm): high fluorescence | Kd (EGFR 19del; HX103 5 µM, EGFR 0 to 6 µM in PBS, one-site specific binding model, read-out: apparent binding affinity (Kd)): 1.1 ± 0.2 µM | Fluorescence response of HX103 to EGFR 19del (EGFR 19del; EGFR 0.1 µM, n=1-3): 2.201 and 2.149 and 2.11 | Fluorescence response of HX103 to EGFR 19del (EGFR 19del; EGFR 1 µM, n=1-3): 5.519 and 5.544 and 5.826 | Fluorescence response of HX103 to EGFR 19del (EGFR 19del; EGFR 5 µM, n=1-3): 8.2406 and 9.498 and 10.3034 | Fluorescence response of HX103 to EGFR 19del (EGFR 19del; EGFR 6 µM, n=1-3): 10.0143 and 10.322 and 11.4127 | IC50 (H1975 cells): 45 µM | Fluorescence intensity, BSA (BSA; wavelength 666 nm): 1883.79 | Fluorescence intensity, BSA (BSA; wavelength 669 nm): 1770.88 | Fluorescence intensity, BSA (BSA; wavelength 671 nm): 1700.55 | Fluorescence intensity, BSA (BSA; wavelength 673 nm): 1676.53 | Fluorescence intensity, BSA (BSA; wavelength 676 nm): 1671.89 | Fluorescence intensity, BSA (BSA; wavelength 678 nm): 1658.01 | Fluorescence intensity, BSA (BSA; wavelength 681 nm): 1606.53 | Fluorescence intensity, BSA (BSA; wavelength 683 nm): 1507.19 | Fluorescence intensity, BSA (BSA; wavelength 686 nm): 1380.4 | Fluorescence intensity, BSA (BSA; wavelength 688 nm): 1249.52 | Fluorescence intensity, BSA (BSA; wavelength 690 nm): 1137.89 | Fluorescence intensity, BSA (BSA; wavelength 693 nm): 1060.59 | Fluorescence intensity, BSA (BSA; wavelength 695 nm): 1011.56 | Fluorescence intensity, BSA (BSA; wavelength 698 nm): 981.361 | Fluorescence intensity, BSA (BSA; wavelength 700 nm): 960.577
